The values below come from PubChem BioAssay AID256 (DTP/NCI, 2004).

Values joined by “and” are separate entries in the source; they are usually repeats but may differ in a detail not shown here. Identical values can stand only once. Inconclusive results and toxic doses are left out.

This experiment deals with CD2F1 mice, L1210 leukemia ip, survival T/C. Put plainly: NCI In Vivo Anticancer Drug Screen. Data for tumor model L1210 Leukemia (intraperitoneal) in CD2F1 (CDF1) mice. The settings on record: higher = longer survival. In short, it runs like this: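 Implant tumor; dose compound or vehicle; measure endpoint in both groups; report treated divided by control.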
The mark [1] stands for this setting: endpoint: mean survival time, dose: 25.0 mg/kg/injection, schedule: Q04DX003 (ip), vehicle: saline with Tween-80.
The mark [2] stands for this setting: endpoint: mean survival time, dose: 50.0 mg/kg/injection, schedule: Q04DX003 (ip), vehicle: saline with Tween-80.
Where [3] appears, read: endpoint: mean survival time, dose: 100.0 mg/kg/injection, schedule: Q01DX001 (ip), vehicle: saline with Tween-80.
The mark [4] stands for this setting: endpoint: mean survival time, dose: 200.0 mg/kg/injection, schedule: Q01DX001 (ip), vehicle: saline with Tween-80.
The mark [5] stands for this setting: endpoint: mean survival time, dose: 400.0 mg/kg/injection, schedule: Q01DX001 (ip), vehicle: saline with Tween-80.
Setting [6] is: endpoint: mean survival time, dose: 50.0 mg/kg/injection, schedule: Q04DX003 (ip), vehicle: saline.
Setting [7] is: endpoint: mean survival time, dose: 100.0 mg/kg/injection, schedule: Q04DX003 (ip), vehicle: saline.
Setting [8] is: endpoint: mean survival time, dose: 200.0 mg/kg/injection, schedule: Q04DX003 (ip), vehicle: saline.
[9] abbreviates: endpoint: mean survival time, dose: 100.0 mg/kg/injection, schedule: Q01DX001 (ip), vehicle: saline.
[10] abbreviates: endpoint: mean survival time, dose: 50.0 mg/kg/injection, schedule: Q01DX009 (ip), vehicle: saline with Tween-80.
Where [11] appears, read: endpoint: mean survival time, dose: 100.0 mg/kg/injection, schedule: Q01DX009 (ip), vehicle: saline with Tween-80.
[12] abbreviates: endpoint: mean survival time, dose: 200.0 mg/kg/injection, schedule: Q01DX009 (ip), vehicle: saline with Tween-80.
Setting [13] is: endpoint: mean survival time, dose: 100.0 mg/kg/injection, schedule: Q04DX003 (ip), vehicle: saline with Tween-80.
Where [14] appears, read: endpoint: mean survival time, dose: 200.0 mg/kg/injection, schedule: Q04DX003 (ip), vehicle: saline with Tween-80.
Setting [15] is: endpoint: mean survival time, dose: 400.0 mg/kg/injection, schedule: Q04DX003 (ip), vehicle: saline with Tween-80.

For `O=[N+]([O-])c1ccc(N/N=C/C(Br)(Br)Br)c([N+](=O)[O-])c1`, the T/C under setting [1] is 102 % of control and the T/C under setting [2] was 100 % of control.
On to `CCOc1ccc(-n2c(=O)c(N=Nc3ccccc3)c(O)n(-c3ccccc3OC)c2=S)cc1`, for which the T/C is, setting by setting: under setting [3], 102 % of control; under setting [4], 89 % of control; under setting [5], 90 % of control.
Take `O=[As](c1ccccc1Br)(c1ccccc1Br)c1ccccc1Br`: the T/C under setting [6] was 101 % of control, the T/C under setting [7] is 100 % of control and the T/C under setting [8] is 95 % of control.
As to `CC(C)C/C=N/NC(=O)c1ccc[n+](C)c1`, the T/C is 107 % of control (endpoint: mean survival time, dose: 50.0 mg/kg/injection, schedule: Q01DX001 (ip), vehicle: saline); 109 % of control under setting [9]; 103 % of control (endpoint: mean survival time, dose: 200.0 mg/kg/injection, schedule: Q01DX001 (ip), vehicle: saline).
As for `CC(C)=NC(=O)NO.[Cl][Co][Cl]`, the T/C is 109 % of control under setting [6]; 113 % of control (endpoint: mean survival time, dose: 75.0 mg/kg/injection, schedule: Q04DX003 (ip), vehicle: saline); 100 % of control under setting [7]; 113 % of control (endpoint: mean survival time, dose: 125.0 mg/kg/injection, schedule: Q04DX003 (ip), vehicle: saline).
Consider `N#CSCc1ccc(Cl)cc1Cl`, for which the T/C was 103 % of control under setting [10], 101 % of control under setting [11] and 96 % of control under setting [12].
Turning to `CC(=O)OC1C=CS(=O)(=O)C1` (configuration not stated), the T/C under setting [13] was 108 % of control, the T/C under setting [14] was 103 % of control and the T/C under setting [15] was 105 % of control.
For `CN(C)C=Nc1ccc([N+](=O)[O-])c2ccccc12`, the T/C was 105 % of control (endpoint: mean survival time, dose: 100.0 mg/kg/injection, schedule: Q01DX009 (ip), vehicle: other); 103 % of control (endpoint: mean survival time, dose: 200.0 mg/kg/injection, schedule: Q01DX009 (ip), vehicle: other); 96 % of control (endpoint: mean survival time, dose: 400.0 mg/kg/injection, schedule: Q01DX009 (ip), vehicle: other).
Regarding `Cc1c2cnccc2c(C)c2c1c1ccccc1n2CCCCCCNCc1ccccc1`, the T/C is 95 % of control under setting [1], 89 % of control under setting [2] and 95 % of control under setting [13].
With `COc1ccccc1/C(C)=N\NC(=O)c1ccccc1`, the T/C under setting [11] is 94 % of control; the T/C under setting [13] was 94 % of control; the T/C under setting [12] was 96 % of control; the T/C under setting [14] was 98 % of control; the T/C under setting [15] is 104 % of control.
For `C=CCc1nc2c(N)ncnc2n1C1OC(CO)C(O)C1O` (configuration not stated), the T/C reads like this: (endpoint: median survival time, dose: 12.5 mg/kg/injection, schedule: Q01DX005 (ip), vehicle: water) 105 % of control; (endpoint: median survival time, dose: 25.0 mg/kg/injection, schedule: Q01DX005 (ip), vehicle: water) 104 % of control; (endpoint: median survival time, dose: 50.0 mg/kg/injection, schedule: Q01DX005 (ip), vehicle: water) 102 % of control; (endpoint: median survival time, dose: 100.0 mg/kg/injection, schedule: Q01DX005 (ip), vehicle: water) 102 % of control; (endpoint: median survival time, dose: 200.0 mg/kg/injection, schedule: Q01DX005 (ip), vehicle: water) 104 % of control.
For `CC1CCCC(C)N1c1ccc(NC(=O)c2ccc(C(=O)Nc3ccc(N4C(C)CCCC4C)cc3)cc2)cc1` (configuration not stated), under setting [9], the T/C is 86 % of control.
With `C1=CC2C3C=CC(C3)C2C1` (configuration not stated), the T/C was 94 % of control under setting [10], 93 % of control under setting [11] and 98 % of control under setting [12].
As for `O=C(c1ccccc1)c1cccs1`, the T/C reads like this: (endpoint: mean survival time, dose: 22.0 mg/kg/injection, schedule: Q01DX009 (ip), vehicle: saline with Tween-80) 96 % of control; (endpoint: mean survival time, dose: 22.0 mg/kg/injection, schedule: Q04DX003 (ip), vehicle: saline with Tween-80) 95 % of control; (endpoint: mean survival time, dose: 44.0 mg/kg/injection, schedule: Q01DX009 (ip), vehicle: saline with Tween-80) 96 % of control; (endpoint: mean survival time, dose: 44.0 mg/kg/injection, schedule: Q04DX003 (ip), vehicle: saline with Tween-80) 101 % of control; (endpoint: mean survival time, dose: 88.0 mg/kg/injection, schedule: Q01DX009 (ip), vehicle: saline with Tween-80) 93 % of control; (endpoint: mean survival time, dose: 88.0 mg/kg/injection, schedule: Q04DX003 (ip), vehicle: saline with Tween-80) 104 % of control.
Regarding `NNC(=O)CCC(=O)NN`, the T/C reads like this: (endpoint: mean survival time, dose: 6.25 mg/kg/injection, schedule: Q01DX009 (ip), vehicle: saline) 111 % of control; (endpoint: mean survival time, dose: 12.5 mg/kg/injection, schedule: Q01DX009 (ip), vehicle: saline) 103 % of control; (endpoint: mean survival time, dose: 25.0 mg/kg/injection, schedule: Q01DX009 (ip), vehicle: saline) 97 % of control; under setting [7], 98 % of control; under setting [8], 113 % of control; (endpoint: mean survival time, dose: 400.0 mg/kg/injection, schedule: Q04DX003 (ip), vehicle: saline) 101 % of control.
On to `O=S=Nc1ccc(S(=O)(=O)c2ccc(N=S=O)cc2)cc1`, for which the T/C under setting [10] was 96 % of control, the T/C under setting [13] was 95 % of control, the T/C under setting [12] was 101 % of control and the T/C under setting [14] was 95 % of control.
Take `CC(C)(C)C(=O)CC(=O)C(C)(C)C.CC(C)(C)C(=O)CC(=O)C(C)(C)C.CC(C)(C)C(=O)CC(=O)C(C)(C)C.[Sc]`: the T/C by setting is: under setting [2], 94 % of control; under setting [13], 94 % of control and 100 % of control; under setting [14], 97 % of control and 104 % of control; under setting [15], 95 % of control.
With `S=c1nccc[nH]1.[Pd]`, the T/C runs as follows: (endpoint: mean survival time, dose: 3.13 mg/kg/injection, schedule: Q04DX003 (ip), vehicle: distilled water + Tween-80) 97 % of control; (endpoint: mean survival time, dose: 6.25 mg/kg/injection, schedule: Q04DX003 (ip), vehicle: distilled water + Tween-80) 94 % of control; (endpoint: mean survival time, dose: 12.5 mg/kg/injection, schedule: Q04DX003 (ip), vehicle: distilled water + Tween-80) 89 % of control; (endpoint: mean survival time, dose: 25.0 mg/kg/injection, schedule: Q04DX003 (ip), vehicle: distilled water + Tween-80) 89 % of control; (endpoint: mean survival time, dose: 50.0 mg/kg/injection, schedule: Q04DX003 (ip), vehicle: distilled water + Tween-80) 89 % of control.
Turning to `COC(=O)CCC(C)(c1ccc(O)cc1)c1ccc(O)cc1`, the T/C under setting [13] is 103 % of control, the T/C under setting [14] was 97 % of control and the T/C under setting [15] is 91 % of control.
With `Cc1cccc(NC(=S)N(C)C)c1`, the T/C runs as follows: under setting [13], 104 % of control; under setting [14], 102 % of control; under setting [15], 94 % of control.
For the molecule `O=C(NCCO)c1cc2ccccc2o1`, the T/C is 93 % of control under setting [3], 98 % of control under setting [4] and 90 % of control under setting [5].
Turning to `C=C(Cl)CSCCCS`, the T/C is 111 % of control (endpoint: mean survival time, dose: 100.0 mg/kg/injection, schedule: Q04DX003 (ip), vehicle: acetone); 116 % of control (endpoint: mean survival time, dose: 200.0 mg/kg/injection, schedule: Q04DX003 (ip), vehicle: acetone); 122 % of control (endpoint: mean survival time, dose: 400.0 mg/kg/injection, schedule: Q04DX003 (ip), vehicle: acetone).
For `NC(N)=N/N=C/c1ccc(Cl)cc1Cl`, the T/C is 88 % of control (endpoint: mean survival time, dose: 8.0 mg/kg/injection, schedule: Q01DX Z (ip), vehicle: saline); 96 % of control (endpoint: mean survival time, dose: 16.0 mg/kg/injection, schedule: Q01DX Z (ip), vehicle: saline); 92 % of control (endpoint: mean survival time, dose: 31.0 mg/kg/injection, schedule: Q01DX Z (ip), vehicle: saline); 95 % of control (endpoint: mean survival time, dose: 62.0 mg/kg/injection, schedule: Q01DX Z (ip), vehicle: saline).
For the molecule `CCCCCCCC(=O)N/N=C(\CO)[C@]1(O)Cc2c(O)c3c(c(O)c2[C@@H](OC2CC(N)C(O)C(C)O2)C1)C(=O)c1c(OC)cccc1C3=O` (some centres not stated), the T/C runs as follows: (endpoint: mean survival time, dose: 1.5 mg/kg/injection, schedule: Q01DX009 (ip), vehicle: saline) 124 % of control; (endpoint: mean survival time, dose: 3.0 mg/kg/injection, schedule: Q01DX009 (ip), vehicle: saline) 122 % of control; (endpoint: mean survival time, dose: 6.0 mg/kg/injection, schedule: Q01DX009 (ip), vehicle: saline) 122 % of control; (endpoint: mean survival time, dose: 12.0 mg/kg/injection, schedule: Q01DX009 (ip), vehicle: suspension in saline) 118 % of control; (endpoint: mean survival time, dose: 48.0 mg/kg/injection, schedule: Q01DX009 (ip), vehicle: suspension in saline) 162 % of control.
